Experimental data as given in publication PMC10038264, “A new family of glutamate-gated chloride channels in parasitic sea louse Caligus rogercresseyi: A subunit refractory to activation by ivermectin is dominant in heteromeric assemblies” (PLOS Pathogens, 2023).

Columns and labels:
DmGluClα = test system: DmGluClα; design: method as in PMID 7935817, PMID 8702744, PMID 25994631; conditions: read-out: EC50 glutamate; cited from earlier work
[1] = test system: coexpressed CrGluCl-D:CrGluCl-A; test: Voltage-clamp of oocytes coinjected with CrGluCl-D and CrGluCl-A; type: cell-based, Caligus rogercresseyi; conditions: D:A ratio 1:1
Procedure: Adult female Xenopus laevis frogs were anaesthetized by immersion in a1g/L solution tricaine (Ethyl 3-aminobenzoate methanesulfonate, Sigma) buffered to pH 7 with NaHCO3. Surgery was performed 30–40 min later, once the frog was completely anaesthetized judging by loss of reflexes. Ovarian lobes were removed through 1 cm abdominal incision and then kept at 16°C in Barth’s modified solution containing (in mM): 88 NaCl, 1 KCl, 0.4 CaCl2, 0.3 Ca (NO3)2, 0.8 MgSO4, 2.4 NaHCO3, 5 Hepes, 2.5 sodium pyruvate, 100 μg/ml gentamicin sulfate, 100 U/ml penicillin, 100 μg/ml streptomycin, 250 μg/ml amphotericin B, 0.22μm filtered and adjusted to pH 7.5 with Tris-Base. Osmolarity was brought to 220 mOsm with saccharose. […]
Current measurements at controlled membrane potentials (voltage-clamp experiments) were performed using two intracellular microelectrodes in defolliculated Xenopus oocytes previously microinjected with 20 ng of cRNA. […] The oocytes were recorded in a chamber (Model RC-1Z, Warner Instrumenst, USA) under continuous superfusion. […] Currents were recorded continuously during the experiments without interruptions for solution changes. […] The signal filtered at 1 kHz was acquired with a Digidata 1440A Analog-to-Digital Converter and analyzed with Axon pClamp 10.6 software. […]

| Compound | EC50 (DmGluClα) [µM] | Iver response to activation [1] |
| --- | --- | --- |
| N[C@@H](CCC(=O)O)C(=O)O [glutamate, L-glutamate] | 23 |  |
| ivermectin |  | Sensitive |
